Data taken from patent publication US7264935B2, “Potassium-dependent sodium-calcium exchanger” (Astellas Pharma Inc., priority 2002, dated 2007).

Columns and labels:
Format in all cases: cell-based
[1] = system: human peripheral polymorphonuclear leukocytes (PMNs); experiment: fMLP-stimulated migration test of PMNs in Transwell chemotaxis chamber; conditions: for Number of migrating cells (relative value): 100 nmol/L fMLP, 37° C., 1 hour, DMSO = 100, average ± SD of three experiments; for migration of PMNs (result in words): 10, 30 and 100 μmol/L, fMLP-stimulated
Experimental: The compounds obtained in Example 6 were evaluated using human peripheral polymorphonuclear leukocytes (PMNs). A blood sample was obtained by collecting blood from a healthy adult. A ficoll solution for separation (mono-poly resolving medium; Dainippon Pharmaceutical) was poured into each centrifuge tube, and a fresh blood component was laid on the ficoll solution. Centrifugation was carried out at 400×g at room temperature for 30 minutes to separate the upper layer (monocytes), the intermediate layer (PMNs), and the precipitate (erythrocytes). Each layer was collected in such a way that they were not mixed with each other, suspended in a phosphate buffered saline (PBS), and recentrifuged. Each collected layer was suspended in an RPMI1640 medium containing 0.2% bovine serum albumin (BSA), and used in the following experiment after counting the number of cells. A portion of the resulting PMN component was stained by a hematoxylin and eosin stain to confirm that neutrophils (approximately 95%) and eosinophils (approximately 5%) were contained.
A migration test was carried out using a 24-well disposable chemotaxis chamber Transwell 3 μm; Corning). Each test solution in which compound A or B (final concentration=10 μmol/L, 30 μmol/L, and 100 μmol/L) were contained in a medium (0.2% BSA, RPMI1640 medium) containing 100 nmol/L formylmethionyl-leucinyl-phenylalanine (fMLP) was prepared, and 1 mL of each test solution was added to each of the lower wells. The collected PMNs were added to each of the upper wells (2.0×10^6 cells/well; 0.2 mL) and incubated at 37° C. for 1 hour. The numbers of cells which migrated to the lower wells were counted by a hemacytometer. The test was independently repeated three times.
Each value shown in Table 1 is a relative value when the value obtained in the case of using DMSO instead of the test compounds is regarded as 100. Further, each value shown in Table 1 is an average and a standard deviation (SD) on the basis of three independent experiments.

[2] = biological target: T1, novel potassium-dependent sodium-calcium exchanger consisting of the amino acid sequence of SEQ ID NO: 2 (Homo sapiens, UniProt Q8NFF2); experiment: 45Ca uptake screening for inhibition of potassium-dependent sodium-calcium exchange activity in stable-expression Dede cells (SEQ ID NO: 2); conditions: exchanger of SEQ ID NO: 2; conditions of Example 6
T1 construct: expressed in transfected cells
T1 sequence (Q8NFF2 39-622): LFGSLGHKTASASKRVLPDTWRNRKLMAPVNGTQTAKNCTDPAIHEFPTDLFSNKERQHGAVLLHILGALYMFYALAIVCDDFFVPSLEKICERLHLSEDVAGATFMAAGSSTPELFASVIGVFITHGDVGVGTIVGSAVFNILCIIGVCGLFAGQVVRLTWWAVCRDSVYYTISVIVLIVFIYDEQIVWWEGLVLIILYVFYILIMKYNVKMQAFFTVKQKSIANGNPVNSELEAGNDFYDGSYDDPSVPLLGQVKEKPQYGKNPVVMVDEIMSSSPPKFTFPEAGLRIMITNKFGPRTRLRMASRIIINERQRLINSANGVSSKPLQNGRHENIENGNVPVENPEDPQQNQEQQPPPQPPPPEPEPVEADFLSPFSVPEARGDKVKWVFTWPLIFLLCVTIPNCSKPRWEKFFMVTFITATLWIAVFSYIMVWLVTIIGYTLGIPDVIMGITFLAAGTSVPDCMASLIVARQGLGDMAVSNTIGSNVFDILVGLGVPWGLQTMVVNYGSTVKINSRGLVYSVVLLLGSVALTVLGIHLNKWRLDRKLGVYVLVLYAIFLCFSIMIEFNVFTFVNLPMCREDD
Experimental: (§1) Sodium was incorporated into cells by changing the medium to an extracellular solution containing monensin [i.e., a solution containing 0.01 mmol/L monensin, 1 mmol/L ouabain, 146 mmol/L NaCl, 4 mmol/L KCl, 0.1 mmol/L CaCl2, 2 mmol/L MgCl2, 10 mmol/L glucose, 0.1% bovine serum albumin, and 10 mmol/L HEPES-Tris (pH=7.4)] and incubating the cells at 37° C. for 30 minutes. […]
(§2) The treated cells were washed with a washing solution containing 120 mmol/L choline chloride, 10 mmol/L LaCl3, and 10 mmol/L HEPES-Tris (pH=7.4) to remove calcium ions not incorporated, and then an intracellular calcium ion radioactivity was measured and analyzed by a liquid scintillation counter. In the HEK293 cells, Dede cells, or CHO-dhfr^− cells expressing the polypeptide consisting of the amino acid sequence of SEQ ID NO: 2 or 4, a higher radioactivity of approximately two times that obtained in the case of the extracellular solution A was measured when using the extracellular solution B (extracellular solution in which sodium was replaced with choline). Further, higher radioactivities of approximately five times and approximately ten times that obtained in the case of the extracellular solution A were measured when using the extracellular solutions C and D (extracellular solution containing potassium), respectively. […]

[3] = biological target: T2, novel potassium-dependent sodium-calcium exchanger consisting of the amino acid sequence of SEQ ID NO: 4 (Homo sapiens, UniProt Q8NFF2); experiment: 45Ca uptake screening for inhibition of potassium-dependent sodium-calcium exchange activity in stable-expression Dede cells (SEQ ID NO: 4); conditions: exchanger of SEQ ID NO: 4; conditions of Example 6
T2 construct: expressed in transfected cells
T2 sequence (Q8NFF2 39-603 isoform Q8NFF2-3): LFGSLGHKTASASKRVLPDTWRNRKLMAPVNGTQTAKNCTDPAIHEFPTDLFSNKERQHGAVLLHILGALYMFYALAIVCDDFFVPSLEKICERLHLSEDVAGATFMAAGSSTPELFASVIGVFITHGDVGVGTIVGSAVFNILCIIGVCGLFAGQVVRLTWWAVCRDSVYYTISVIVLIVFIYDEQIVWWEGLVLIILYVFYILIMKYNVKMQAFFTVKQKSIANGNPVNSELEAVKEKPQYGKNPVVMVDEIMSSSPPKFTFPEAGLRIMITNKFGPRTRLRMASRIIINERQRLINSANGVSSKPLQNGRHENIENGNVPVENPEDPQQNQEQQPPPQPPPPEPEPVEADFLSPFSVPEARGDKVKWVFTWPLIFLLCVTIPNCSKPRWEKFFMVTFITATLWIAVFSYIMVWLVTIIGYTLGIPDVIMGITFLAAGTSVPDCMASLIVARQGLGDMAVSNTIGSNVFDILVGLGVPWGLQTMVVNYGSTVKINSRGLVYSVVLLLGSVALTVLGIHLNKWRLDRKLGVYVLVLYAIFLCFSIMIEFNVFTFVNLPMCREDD
Experimental: as §1, §2

Compound	Number of migrating cells (relative value) ([1]; 10 μmol/L compound)	Number of migrating cells (relative value) ([1]; 30 μmol/L compound)	Number of migrating cells (relative value) ([1]; 100 μmol/L compound)	migration of PMNs (result in words) [1]	IC50 [2]	IC50 [3]
N/C(=N\C(=O)c1nc(Cl)c(N)nc1N)NCc1ccc(Cl)c(Cl)c1 [compound B, 3′,4′-dichlorobenzamil]	100.68 ± 7.27	72.90 ± 15.85	44.58 ± 32.82	inhibited the migration of PMNs dose-dependently	20.2 µM	58.9 µM
CS(=O)(=O)O.N=C(N)SCCc1ccc(OCc2ccc([N+](=O)[O-])cc2)cc1 [compound A, 2-[2-[4-(4-nitrobenzyloxy)phenyl]ethyl]isothiourea methanesulfonate]	78.18 ± 25.93	29.50 ± 26.16	16.84 ± 10.78	inhibited the migration of PMNs dose-dependently	15.8 µM	35 µM
